Test results as given in patent US20100113504A1, “AMIDE COMPOUNDS AND THEIR USE AS ANTITUMOR AGENTS” (SIGMA-TAU INDUSTRIE FARMACEUTICHE RIUNITE S.P.A., priority 2007, published 2010).
Read-outs that look alike come from different tables or passages of the source.

Tests used:
[1] = rcm bond, Grubbs II, CH2Cl2, 1.0 mM
[2] = rcm bond
[3] = system: HCT-116 human colon carcinoma cells; assay: Cytotoxicity (sulphorodamine B) on HCT-116 tumor cells; assay type: cell-based; settings: Homo sapiens, HCT-116 cells, 24 h treatment, then 48 h in drug-free medium, read-out: IC50 ± SD, HCT-116
Experimental: (§1) Tumor cells were seeded in 96-well tissue culture plates at approximately 10% confluence and were allowed to attach and recover for at least 24 h. […] The plates were incubated for 24 h at 37° C. At the end of the treatment, for NB4 tumor cells in suspension, the procedure was performed as follows: medium culture was removed by centrifugation of the plates at 1600×g for 10 min and the surnatant was removed. 250 μl PBS were added, then the plates were centrifuged at 1600×g for 10 min, the surnatant was removed. […] The plates were centrifuged again at 1600×g for 10 min, the medium culture was removed and 200 μl PBS and 50 μl of cold 80% TCA were added. The plates were incubated on ice for at least 1 h. TCA was removed, the plates were washed 3 times for immersion in distilled-water and dried before on paper, then in a thermostater at 40° C. Subsequently 200 μl of 0.4% sulphorodamine B in 1% acetic acid were added. The plates were incubated at room temperature for other 30 min. Sulphorodamine B was removed, the plates were washed for immersion in 1% acetic acid for 3 times, then they were washed and dried on paper. 200 μl Tris 10 mM were added, the plates were kept under stirring for 20 min. The survival cell was determined as optical density by a Multiskan spectrofluorimeter at 540 nm. […] Also the last day of the assay, the surnatant was removed without centrifugation.
(§2) The amount of cells killed was calculated as the percentage decrease in sulphorodamine B binding compared with control cultures.

[4] = system: NB4 human promyelocitic leukaemia; assay: Cytotoxicity (sulphorodamine B) on NB4 tumor cells; assay type: cell-based; settings: Homo sapiens, NB-4, 24 h treatment, then 48 h in drug-free medium, read-out: IC50 ± SD, NB4
Experimental: To test the effects of the compounds on cell growth, NB4 human promyelocitic leukaemia, NCI-H460 non-small cell carcinoma cells and HCT-116 human colon carcinoma cells were used. NB4 and NCI-H460 tumor cells were grown RPMI 1640 containing 10% fetal bovine serum (GIBCO), whereas HCT-116 tumor cells were grown in McCoy's 5A containing 10% fetal bovine serum (GIBCO).
Tumor cells were seeded in 96-well tissue culture plates at approximately 10% confluence and were allowed to attach and recover for at least 24 h. […] The plates were incubated for 24 h at 37° C. At the end of the treatment, for NB4 tumor cells in suspension, the procedure was performed as follows: medium culture was removed by centrifugation of the plates at 1600×g for 10 min and the surnatant was removed. 250 μl PBS were added, then the plates were centrifuged at 1600×g for 10 min, the surnatant was removed. 200 μl/well of medium culture RPMI 1640 containing 10% FCS were added and the plates were incubated at 37° C. for other 48 h. The plates were centrifuged again at 1600×g for 10 min, the medium culture was removed and 200 μl PBS and 50 μl of cold 80% TCA were added. The plates were incubated on ice for at least 1 h. TCA was removed, the plates were washed 3 times for immersion in distilled-water and dried before on paper, then in a thermostater at 40° C. Subsequently 200 μl of 0.4% sulphorodamine B in 1% acetic acid were added. The plates were incubated at room temperature for other 30 min. Sulphorodamine B was removed, the plates were washed for immersion in 1% acetic acid for 3 times, then they were washed and dried on paper. 200 μl Tris 10 mM were added, the plates were kept under stirring for 20 min. The survival cell was determined as optical density by a Multiskan spectrofluorimeter at 540 nm. For the tumor cells in adhesion (NCI-H460 and HCT-116), the procedure was as above mentioned, except that the at the end of the treatment, the plates were washed by remotion of the surnatant and addition of PBS 3 times and not by centrifugation. Also the last day of the assay, the surnatant was removed without centrifugation.
as §2

[5] = system: NB4, NCI-H460 and HCT-116 tumor cells; assay: Cytotoxicity summarised over the three tumor cell lines; assay type: cell-based; settings: Homo sapiens; mean over NB4, NCI-H460, HCT-116; 24 h of treatment
Experimental: as §1, §2

[6] = system: NCI-H460 non-small cell carcinoma cells; assay: Cytotoxicity (sulphorodamine B) on NCI-H460 tumor cells; assay type: cell-based; settings: Homo sapiens, 24 h treatment, then 48 h in drug-free medium, read-out: IC50 ± SD, NCI-H460
Experimental: as §1, §2

Molecule | IC50 [3] | IC50 [4] | IC50 [5] | IC50 [6] | further results
7-(S)-Allyl-tert-butoxycarbonylamino)-7-(2-pent-4-enyloxyphenylcarbamoyl)heptanoic acid methyl ester |  |  |  |  | ring closure, isolated yield ([1]; the molecule shown is the open-chain precursor, 13-membered ring): 84%
COC(=O)CCCCCC1OCC=Cc2cc(cc(OC)c2)COc2ccccc2NC1=O (racemic) |  |  |  |  | ring closure, isolated yield ([1]; from C=CCOC(CCCCCC(=O)OC)C(=O)Nc1ccccc1OCc1cc(C=C)cc(OC)c1, 14-membered ring): 52%
COC(=O)CCCCC[C@H]1C(=O)Nc2ccccc2OCCCCC=CCN1C(=O)OC(C)(C)C |  |  |  |  | ring closure, yield of all isomers ([2]; from C=CCCCCOc1ccccc1NC(=O)[C@H](CCCCCC(=O)OC)N(CC=C)C(=O)OC(C)(C)C): 82%
COC(=O)CCCCCC1OCC=CCC(c2ccc(OC)cc2)Oc2ccccc2NC1=O (racemic) |  |  |  |  | ring closure, isolated yield ([1]; from C=CCOC(CCCCCC(=O)OC)C(=O)Nc1ccccc1OC(CC=C)c1ccc(OC)cc1, 12-membered ring): 45%
COC(=O)CCCCCC1OCC=CCCCOc2ccncc2NC1=O (racemic) |  |  |  |  | ring closure, isolated yield ([1]; from C=CCCCOc1ccncc1NC(=O)C(CCCCCC(=O)OC)OCC=C, 13-membered ring): 45%; ring closure, yield of all isomers ([2]; from C=CCCCOc1ccncc1NC(=O)C(CCCCCC(=O)OC)OCC=C): 45%
O=C(CCCCCC(OCc1ccc(C(F)(F)F)cc1)C(=O)Nc1ccccc1)NO (racemic) [Compound 9e, (±)-2-(4-Trifluoromethylbenzyloxy)octanedioic acid 8-hydroxyamide 1-phenylamide] | 0.4 ± 0.03 µM | 0.2 ± 0.002 µM | < 1 µM | 0.5 ± 0.06 µM | 
O=C(CCCCCC(OCc1cccc(Oc2ccccc2)c1)C(=O)Nc1ccccc1)NO (racemic) [Compound 9k, (±)-2-(3-Phenoxybenzyloxy)-octanedioic acid 8-hydroxyamide 1-phenylamide] | 0.7 ± 0.08 µM | 0.2 ± 0.009 µM | < 1 µM | 0.7 ± 0.04 µM | 
Cc1ccc(COC(CCCCCC(=O)NO)C(=O)Nc2ccccc2)cc1 (racemic) [Compound 9g, (±)-2-(4-Methylbenzyloxy)octanedioic acid 8-hydroxyamide 1-phenylamide] | 0.3 ± 0.009 µM | 0.1 ± 0.01 µM | < 1 µM | 0.6 ± 0.01 µM | 
COc1ccc(COC(CCCCCCC(=O)NO)C(=O)Nc2ccccc2)cc1 (racemic) [Compound 13d, (±)-2-(4-Methoxybenzyloxy)nonanedioic acid 9-hydroxyamide 1-phenylamide] | 0.5 ± 0.1 µM | 0.3 ± 0.03 µM | < 1 µM | 0.7 ± 0.03 µM | 
COc1ccc(NC(=O)C(CCCCCC(=O)NO)OCc2ccccc2)cc1 (racemic) [Compound 9l, (±)-2-Benzyloxyoctanedioic acid 8-hydroxyamide 1-[(4-methoxyphenyl)-amide]] | 0.5 ± 0.06 µM | 0.2 ± 0.02 µM | < 1 µM | 1 ± 0.09 µM | 
COc1cccc(COC(CCCCCC(=O)NO)C(=O)Nc2ccccc2)c1 (racemic) [Compound 9h, (±)-2-(3-Methoxybenzyloxy)octanedioic acid 8-hydroxyamide 1-phenylamide] | 0.6 ± 0.1 µM | 0.2 ± 0.007 µM | < 1 µM | 0.6 ± 0.03 µM | 
7-(S)-Allyl-tert-butoxycarbonylamino)-7-(2-hex-5-enyloxyphenylcarbamoyl)heptanoic acid methyl ester |  |  |  |  | ring closure, isolated yield ([1]; the molecule shown is the open-chain precursor, 14-membered ring): 82%
COC(=O)CCCCC[C@H]1C(=O)Nc2ccccc2OCCCC=CCN1C(=O)OC(C)(C)C |  |  |  |  | ring closure, yield of all isomers ([2]; from C=CCCCOc1ccccc1NC(=O)[C@H](CCCCCC(=O)OC)N(CC=C)C(=O)OC(C)(C)C): 84%
